According to patent US5411956A, “Lipolytic enzyme inhibitors” (Nisshin Flour Milling Co., Ltd., priority 1989, dated 1995):

What was measured:
[1] = molecular target: T1, porcine pancreatic lipase (Sus scrofa, UniProt P00591); assay: Assay of lipase inhibitory activity (olive oil emulsion with sodium cholate, Tris buffer); format: biochemical
T1 construct: purchased Sigma Co., Ltd
T1 sequence (P00591 1-450): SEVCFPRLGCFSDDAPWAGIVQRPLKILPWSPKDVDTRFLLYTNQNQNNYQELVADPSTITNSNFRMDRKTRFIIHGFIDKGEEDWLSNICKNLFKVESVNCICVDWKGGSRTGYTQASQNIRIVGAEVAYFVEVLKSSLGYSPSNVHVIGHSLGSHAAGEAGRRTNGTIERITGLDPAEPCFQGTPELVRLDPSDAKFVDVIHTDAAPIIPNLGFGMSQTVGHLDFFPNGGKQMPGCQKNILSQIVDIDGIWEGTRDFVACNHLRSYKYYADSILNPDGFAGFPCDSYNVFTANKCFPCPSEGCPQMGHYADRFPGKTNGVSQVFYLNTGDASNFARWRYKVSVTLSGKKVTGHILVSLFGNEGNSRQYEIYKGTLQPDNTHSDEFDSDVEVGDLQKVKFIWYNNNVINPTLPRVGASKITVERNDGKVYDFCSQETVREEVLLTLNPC
Description: 250 mg of an olive oil, 21.5 mg of sodium cholate as a bile acid component and 30 mg of phosphatidylcholine were added to 5 ml of a 200 mM Tris buffer solution at pH 6.8 (called hereafter "Tris buffer").
(§1) The mixture was ultrasonicated to prepare an olive oil emulsion.
Porcine pancreatic lipase (manufactured by Sigma Co., Ltd.) was added to Tris buffer to prepare an enzyme solution containing 100 units porcine pancreatic lipase per ml.
(§2) The control and six test samples were prepared in the following manner.
(§3) 100 μl of an olive oil emulsion as prepared above were used as a substrate.
(§4) 50 μl of Tris buffer was added to the substrate to prepare an emulsion for control sample. […] All of the emulsions were incubated for 5 min. To each of those emulsions was added 50 μl of the lipase solution as prepared above. The resulting mixture was incubated at 37° C. for one hour, subsequently to which were added 3 ml of the same extraction solvent as used in Example 1. After being shaken for 5 min., the mixture was centrifuged at 3000 rpm for 5 min. The upper layer was removed with an aspirator and to the remaining solution was added 1 ml of the same copper reagent as used in Example 1. The mixture was shaken for 5 min. and centrifuged at 3000 rpm for 5 min. 0.5 ml of a solution was taken from the upper layer and to the solution was added 0.5 ml of the same color developing agent as used in Example 1.
(§5) The resulting solutions for control and test samples were measured for the absorbance at 480 nm (A480) using a photometer to determine the amount of the free fatty acids as formed, i.e., the activity of the porcine pancreatic lipase.
100 μl of an olive oil emulsion prepared in the same way as in Example 4 were used as a substrate.
50 μl of Tris buffer was added to the substrate to prepare an emulsion for control sample. Each 50 μl of the polypeptide-containing solutions as prepared above was added to 100 μl of the substrate to prepare two emulsions for test sample. After incubating the emulsions for 5 min., there was added 50 μl of the enzyme solution prepared in the same way as in Example 4.
Further, the incubated mixture was treated and measured for the activity of porcine pancreatic lipase in the same way as in Example 4.
Lysine oligomers having a degree of polymerization of 2-5 as shown in Table 6 below were prepared using a peptide synthesizer (Biolynx 4170, LKB-Pharmacia Co., Ltd.). Each of the oligomers was purified by high performance liquid chromatography. Each of the purified oligomers was added to distilled water to make up to 1 μmol/ml. […] lysine oligomer-containing solutions were thus prepared.
50 μl of Tris buffer was added to the substrate to prepare an emulsion for control sample. […] After incubating the emulsions for 5 min., there was added 50 μl of a lipase solution containing 100 units of porcine pancreatic lipase per ml as prepared in the same way as in Example 4.

[2] = molecular target: T1, porcine pancreatic lipase; assay: Assay of lipase inhibitory activity of proteins (olive oil emulsion with sodium cholate, potassium phosphate buffer); format: biochemical; conditions: for Activity of porcine pancreatic lipase (%): 4 mg/ml protein solution, percentage of control Abs480, sodium cholate present, potassium phosphate buffer pH 6.8, 37 °C, one hour
Description: 250 mg of an olive oil, 21.5 mg of sodium cholate as a bile acid component and 30 mg of phosphatidylcholine were added to 5 ml of a 300 mM potassium phosphate buffer solution at pH 6.8 (called hereafter "potassium phosphate buffer").
as §1
Porcine pancreatic lipase (manufactured by Sigma Co., Ltd.) was added to the potassium phosphate buffer solution to prepare a lipase solution containing 100 units porcine pancreatic lipase per ml.
as §2, §3
50 μl of potassium phosphate buffer was added to the substrate to prepare an emulsion for control sample. Each 50 μl of the protein(polypeptide)-containing solutions as prepared above was added to 100 μl of the substrate to prepare six emulsions for test samples. All of the emulsions were incubated for 5 min. To each of those emulsions was added 50 μl of the lipase solution as prepared above. The resulting mixture was incubated at 37 ° C. for one hour, subsequently to which were added 3 ml of an extraction solvent (chloroform:methanol:n-heptane=49:1:49). After being shaken for 5 min., the mixture was centrifuged at 3000 rpm for 5 min. The upper layer was removed with an aspirator and to the remaining solution was added 1 ml of a copper reagent (0.45M triethanol amine, 0.05N acetic acid, 3.4% copper sulfate pentahydrate and 20% sodium chloride). The mixture was shaken for 5 min. and centrifuged at 3000 rpm for 5 min. 0.5 ml of a solution was taken from the upper layer and to the solution was added 0.5 ml of a color developing agent (a solution of 0.1% bathocuproine and 0.05% butyl hydroxyanisole in the above extraction solvent).
as §5

[3] = tested on: cholesterol esterase isolated from porcine pancreas; conditions: 4 mg/ml protein solution; percentage of control Abs480; sodium cholate present; 37 °C, one hour
Description: as §3
as §4, with “potassium phosphate” for “Tris”

[4] = Serum triglyceride concentration in rats after oral corn oil emulsion; format: in vivo, SD male rats; conditions: 2 ml corn oil emulsion + 100 mg ε-poly-L-lysine/dextrin 1:1, relative to pre-dose (0)
Description: Two groups of 10 SD male rats (9 weeks age, 200 g average bodyweight) were prepared.
50 g of corn oil, 6 g of yolk lecithine and 12.5 g of glycerol were added to distilled water to make up to 100 ml. The mixture was ultrasonicated to prepare an emulsion.
The rats of first group were each given 2 ml of the emulsion and 100 mg of ε-poly-L-lysine manufactured by Chisso Corp. (containing dextrin and ε-poly-L-lysine at a weight ratio of 1:1 and having formula (I) wherein n is ca. 30), orally using a gastric probe. Blood was drawn at predetermined intervals from the tail vein, and serum triglyceride concentration was measured using Kyowa Medics enzyme Kit TG, determined for mean value (mg/dl) per animal and calculated on the basis of serum triglyceride concentration prior to administration (taken as 0 mg/dl) (According to the invention).
The rats of second group were orally given 2 ml of the emulsion and 50 mg of dextrin. Serum triglyceride concentration was measured at predetermined intervals, determined for the average value and calculated in the same way as above (Comparative example).

[5] = 1 mg per 10 ml Tris buffer solution, pH 6.8, sodium cholate present, percentage of control Abs480
[6] = 1 mg/ml peptide solution in distilled water, Tris buffer system as Example 4

For Protamine, the “Activity of porcine pancreatic lipase (%)” value [1, 5] was 1.3%.

With α-poly-D-lysine hydrobromide the “Activity of porcine pancreatic lipase (%)” value [1, 6] was 1.1%.

For α-poly-L-lysine hydrochloride, the “Activity of porcine pancreatic lipase (%)” value [1, 5] was 6.9% and the “Activity of porcine pancreatic lipase (%)” value [1, 6] was 1.6%.

In the case of “β-Lactoglobulin: β-lactoglobulin (L0130, Sigma Co., Ltd.), not a basic protein [reference compound]”, the “Activity of porcine pancreatic lipase (%)” value [2] is reported as 103.9% and the “Activity of cholesterol esterase (%)” value [3] is reported as 89.9%.

In the case of “β-Purothionin: purified β-purothionin (SEQ ID NO: 3) isolated from the crude wheat purothionin mixture (KSCCKSTLGRNCYNLCRARGAQKLCANVCRCKLTSGLSCPKDFPK)”, the “Activity of porcine pancreatic lipase (%)” value [2] is reported as 0%, the “Activity of porcine pancreatic lipase” value ([2]; concentration of 0.04 mg/ml, separate experiment in a similar manner) is reported as 5.2% and the Lipase activity ([2]; protein solution diluted to 0.2 mg/ml, otherwise as Example 1) is reported as 0%. The “Activity of porcine pancreatic lipase (%)” value [1, 5] was 1.3%.

For ε-poly-L-lysine, the “Blood concentration of neutral fats” value ([4]; 1 hr after oral administration) was 53.3 ± 2.5 mg/dL, the “Blood concentration of neutral fats” value ([4]; 2 hrs after oral administration) was 32.4 ± 4.9 mg/dL and the “Blood concentration of neutral fats” value ([4]; 3 hrs after oral administration) was 16.7 ± 3.2 mg/dL. The “Blood concentration of neutral fats” value ([4]; 4 hrs after oral administration) was 11.1 ± 3.0 mg/dL and the “Blood concentration of neutral fats” value ([4]; 7 hrs after oral administration) was 4.2 ± 1.0 mg/dL.

B1: Ovalbumin: ovalbumin (A5503, Sigma Co., Ltd.), not a basic protein (protein, UniProt P01012 2-386, looked up)
Ovalbumin: GSIGAASMEFCFDVFKELKVHHANENIFYCPIAIMSALAMVYLGAKDSTRTQINKVVRFDKLPGFGDSIEAQCGTSVNVHSSLRDILNQITKPNDVYSFSLASRLYAEERYPILPEYLQCVKELYRGGLEPINFQTAADQARELINSWVESQTNGIIRNVLQPSSVDSQTAMVLVNAIVFKGLWEKAFKDEDTQAMPFRVTEQESKPVQMMYQIGLFRVASMASEKMKILELPFASGTMSMLVLLPDEVSGLEQLESIINFEKLTEWTSSNVMEERKIKVYLPRMKMEEKYNLTSVLMAMGITDVFSSSANLSGISSAESLKISQAVHAAHAEINEAGREVVGSAEAGVDAASVSEEFRADHPFLFCIKHIATNAVLFFGRCVSP
For B1, the “Activity of porcine pancreatic lipase (%)” value [2] was 107.0% and the “Activity of cholesterol esterase (%)” value [3] was 93.6%.
